Test results: patent US10399948B2, “Negative allosteric modulators of metabotropic glutamate receptor 3” (Vanderbilt University, priority 2015, dated 2019)
Where two headings read alike, the source gives them in different places.

Tests used:
Assay type in all cases: cell-based
rat mGlu3 = rat mGlu3 (Rattus norvegicus (Rat), UniProt P31422); assay: mGlu3 Ca2+ flux assay; details: for IC50: NAM, glutamate EC80, >10,000 = decrease without plateau, >30,000 = no measurable activity; for remaining activity at 30 µM: read-out: rat mGlu3 Glu max (%)
Chain of rat mGlu3 (P31422 23-879): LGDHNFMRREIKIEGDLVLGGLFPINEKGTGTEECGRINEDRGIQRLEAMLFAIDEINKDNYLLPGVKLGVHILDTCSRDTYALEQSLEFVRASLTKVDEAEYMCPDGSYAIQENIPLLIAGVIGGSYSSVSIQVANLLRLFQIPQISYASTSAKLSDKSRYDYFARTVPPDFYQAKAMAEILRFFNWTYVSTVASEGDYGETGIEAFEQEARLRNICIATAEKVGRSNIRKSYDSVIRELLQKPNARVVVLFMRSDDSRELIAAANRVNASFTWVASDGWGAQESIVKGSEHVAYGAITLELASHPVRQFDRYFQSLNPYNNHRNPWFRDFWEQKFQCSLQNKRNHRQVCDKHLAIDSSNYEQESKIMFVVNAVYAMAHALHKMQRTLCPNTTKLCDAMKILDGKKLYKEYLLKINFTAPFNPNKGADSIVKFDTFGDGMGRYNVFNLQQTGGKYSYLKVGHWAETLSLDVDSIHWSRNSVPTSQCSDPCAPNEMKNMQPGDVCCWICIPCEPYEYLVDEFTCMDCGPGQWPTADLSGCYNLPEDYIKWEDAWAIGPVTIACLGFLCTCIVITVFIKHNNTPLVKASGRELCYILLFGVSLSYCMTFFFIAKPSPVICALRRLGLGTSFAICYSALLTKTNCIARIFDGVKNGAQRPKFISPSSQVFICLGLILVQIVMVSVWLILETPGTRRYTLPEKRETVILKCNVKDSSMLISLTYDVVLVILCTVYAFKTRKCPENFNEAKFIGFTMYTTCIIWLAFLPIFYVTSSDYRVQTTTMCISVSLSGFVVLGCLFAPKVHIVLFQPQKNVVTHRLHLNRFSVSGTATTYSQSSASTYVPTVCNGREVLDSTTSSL
Method: Gα15/TREx cells stably expressing rat mGlu3 were plated in black-walled, clear-bottomed, poly-D-lysine coated 384-well plates in 20 μL of assay medium (DMEM containing 10% dialyzed FBS, 20 mM HEPES, 25 ng/mL tetracycline, 100 units/mL penicillin/streptomycin plus 250 ng/mL Fungizone, and 1 mM sodium pyruvate) at a density of 15K cells/well. The cells were grown overnight at 37° C. in the presence of 5% CO2. […] Dye was removed, 20 μL of assay buffer was added, and the plate was incubated for 10 minutes at room temperature.
(§1) Ca^2+ flux was measured using the Functional Drug Screening System (FDSS7000, Hamamatsu, Japan). After establishment of a fluorescence baseline for about 3 seconds, the compounds of the present invention were added to the cells, and the response in cells was measured. 2.3 minutes later an EC20 concentration of the mGlu3 receptor agonist glutamate was added to the cells, and the response of the cells was measured for 1.9 minutes; an EC80 concentration of agonist was added and readings taken for an additional 1.7 minutes. All test compounds were dissolved and diluted to a concentration of 10 mM in 100% DMSO. Compounds were then serially diluted 1:3 in DMSO into 10 point concentration response curves, transferred to daughter plates, and further diluted into assay buffer to a 2× stock. Calcium fluorescence measures were recorded as fold over basal fluorescence; raw data was then normalized to the maximal response to glutamate.
(§2) The raw data file containing all time points was used as the data source in the analysis template. This was saved by the FDSS as a tab-delimited text file. Data were normalized using a static ratio function (F/F0) for each measurement of the total 360 values per well divided by each well's initial value. Data were then reduced to peak amplitudes (Max−Initial Min) using a time range that starts approximately 3 seconds prior to the glutamate EC80 addition and continues for approximately 90 seconds. This is sufficient time to capture the peak amplitude of the cellular calcium response. Individual amplitudes were expressed as % EMax by multiplying each amplitude by 100 and then dividing the product by the mean of the amplitudes derived from the glutamate ECMax-treated wells. EC50 values for test compounds were generated by fitting the normalized values versus the log of the test compound concentration (in mol/L) using a 4 parameter logistic equation where none of the parameters were fixed. Each of the three values collected at each concentration of test compound were weighted evenly.

rat mGlu5 = rat mGlu5 (Rattus norvegicus (Rat), UniProt P31424); assay: mGlu5 Ca2+ flux assay; details: for EC50: glutamate EC20, >10,000 = no plateau, >30,000 = no measurable activity, read-out: rat mGlu5 EC50 or IC50; for activity at 30 µM: read-out: rat mGlu5 Glu max (%)
Chain of rat mGlu5 (P31424 21-1203): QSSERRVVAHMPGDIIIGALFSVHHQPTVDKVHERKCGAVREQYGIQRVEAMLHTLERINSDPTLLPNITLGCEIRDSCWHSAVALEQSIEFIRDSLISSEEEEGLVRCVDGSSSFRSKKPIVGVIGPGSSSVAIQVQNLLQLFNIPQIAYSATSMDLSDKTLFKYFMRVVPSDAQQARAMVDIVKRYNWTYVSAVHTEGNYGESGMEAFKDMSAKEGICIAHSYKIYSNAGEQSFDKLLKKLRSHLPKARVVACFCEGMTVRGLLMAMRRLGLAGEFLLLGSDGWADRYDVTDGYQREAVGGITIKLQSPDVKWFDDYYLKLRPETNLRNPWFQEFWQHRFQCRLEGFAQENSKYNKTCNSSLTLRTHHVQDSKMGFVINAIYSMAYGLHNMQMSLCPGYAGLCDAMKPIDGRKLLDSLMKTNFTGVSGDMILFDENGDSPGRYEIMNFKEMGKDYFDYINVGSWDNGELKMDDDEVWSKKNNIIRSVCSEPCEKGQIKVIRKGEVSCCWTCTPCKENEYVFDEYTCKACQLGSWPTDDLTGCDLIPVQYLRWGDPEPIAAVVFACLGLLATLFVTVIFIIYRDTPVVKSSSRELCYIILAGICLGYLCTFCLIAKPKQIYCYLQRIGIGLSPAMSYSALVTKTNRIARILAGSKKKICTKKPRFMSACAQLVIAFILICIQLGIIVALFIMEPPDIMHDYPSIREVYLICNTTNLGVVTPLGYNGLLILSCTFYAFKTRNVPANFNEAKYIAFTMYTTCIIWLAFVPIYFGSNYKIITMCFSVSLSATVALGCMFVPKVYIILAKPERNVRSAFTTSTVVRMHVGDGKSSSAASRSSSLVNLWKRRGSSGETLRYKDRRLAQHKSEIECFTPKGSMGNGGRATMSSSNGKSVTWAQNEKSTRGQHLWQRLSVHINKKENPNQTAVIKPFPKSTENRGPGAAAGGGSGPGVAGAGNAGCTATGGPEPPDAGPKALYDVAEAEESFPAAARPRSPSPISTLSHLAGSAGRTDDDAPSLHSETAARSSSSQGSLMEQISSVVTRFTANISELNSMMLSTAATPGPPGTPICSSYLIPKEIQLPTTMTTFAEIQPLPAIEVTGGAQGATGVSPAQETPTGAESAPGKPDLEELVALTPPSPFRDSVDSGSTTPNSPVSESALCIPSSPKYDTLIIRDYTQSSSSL
Method: (§3) HEK 293A cells stably expressing rat mGlu5 were plated in black-walled, clear-bottomed, poly-D-lysine coated 384-well plates in 20 μL of assay medium (DMEM containing 10% dialyzed FBS, 20 mM HEPES, 100 units/mL penicillin/streptomycin plus 250 ng/mL Fungizone, and 1 mM sodium pyruvate) at a density of 20K cells/well. The cells were grown overnight at 37° C. in the presence of 5% CO2. The next day, medium was removed and the cells incubated with 20 μL of […] Fluo-4, AM prepared as a 2.3 mM stock in DMSO and mixed in a 1:1 ratio with 10% (w/v) pluronic acid F-127 and diluted in assay buffer (Hank's balanced salt solution, 20 mM HEPES, and 2.5 mM probenecid) for 45 minutes at 37° C. Dye was removed, 20 μL of assay buffer was added, and the plate was incubated for 5 minutes at room temperature.
as §1, with “mGlu5” for “mGlu3”
as §2, with “EC20/EC80” for “EC80”, “90-120” for “90”

rat mGlu2 = rat mGlu2 (Rattus norvegicus (Rat), UniProt P31421); assay: mGlu2 Ca2+ flux assay; details: NAM, glutamate EC80; >30,000 = no measurable activity
Chain of rat mGlu2 (P31421 19-872): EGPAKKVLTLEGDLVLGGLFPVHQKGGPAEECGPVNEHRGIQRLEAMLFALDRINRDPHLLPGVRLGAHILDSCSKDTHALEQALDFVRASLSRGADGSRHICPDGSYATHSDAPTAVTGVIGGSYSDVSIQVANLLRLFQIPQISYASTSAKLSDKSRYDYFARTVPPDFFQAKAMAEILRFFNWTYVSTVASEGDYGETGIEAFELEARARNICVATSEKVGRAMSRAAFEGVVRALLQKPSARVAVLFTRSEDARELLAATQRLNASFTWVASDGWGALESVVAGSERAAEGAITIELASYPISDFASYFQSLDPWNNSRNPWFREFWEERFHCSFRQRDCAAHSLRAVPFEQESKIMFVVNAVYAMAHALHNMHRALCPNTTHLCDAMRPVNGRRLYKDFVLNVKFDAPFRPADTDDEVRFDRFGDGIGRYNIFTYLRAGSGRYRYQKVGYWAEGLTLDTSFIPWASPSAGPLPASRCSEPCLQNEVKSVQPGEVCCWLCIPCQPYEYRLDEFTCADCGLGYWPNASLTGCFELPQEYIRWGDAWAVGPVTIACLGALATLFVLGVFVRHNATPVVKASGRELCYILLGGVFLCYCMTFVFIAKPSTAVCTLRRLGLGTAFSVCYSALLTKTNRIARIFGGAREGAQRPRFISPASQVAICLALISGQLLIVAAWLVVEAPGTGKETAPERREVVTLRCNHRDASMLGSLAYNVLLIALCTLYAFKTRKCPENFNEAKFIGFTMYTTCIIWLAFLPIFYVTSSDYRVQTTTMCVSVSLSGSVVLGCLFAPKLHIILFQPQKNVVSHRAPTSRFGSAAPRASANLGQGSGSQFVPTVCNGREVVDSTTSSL
Method: as §3, with “Gα15 HEK293” for “HEK 293A”, “mGlu2” for “mGlu5”, “HEPES,” for “HEPES, 100 units/mL penicillin/streptomycin plus 250 ng/mL Fungizone,”, “12K” for “20K”
as §1, with “mGlu2” for “mGlu3”
as §2, with “ECMax” for “EMax”, “IC50” for “EC50”

[1] = response at 30 μM test compound as percentage of maximal response to glutamate
[2] = PAM, response at 30 μM test compound as percentage of maximal response to glutamate

Row | SMILES | IC50 (rat mGlu3) [nM] | remaining activity at 30 µM (rat mGlu3; [1]) [%] | EC50 (rat mGlu5; PAM) [nM] | IC50 (rat mGlu2) [nM] | activity at 30 µM (rat mGlu5; [2]) [%] | remaining activity at 30 µM (rat mGlu3) [%] | activity at 30 µM (rat mGlu5) [%]
1 | CC(COc1ccn(-c2ccc(F)cc2)c(=O)c1)Oc1ccccc1 (stereo not shown) [Compound 1, 1-(4-Fluorophenyl)-4-(2-phenoxypropoxy)pyridin-2(1H)-one] | 728 | 0.69 | > 30000 | > 30000 |  |  | 
2 | CC(COc1ccccc1)Oc1ccn(-c2ccc(F)cc2)c(=O)c1 (stereo not shown) [Compound 5, 1-(4-fluorophenyl)-4-((1-phenoxypropan-2-yl)oxy)pyridin-2(1H)-one] | 1160 | 1.6 | > 10000 | > 30000 | 42.5 |  | 
3 | O=c1nc(OCCOc2ccccc2)ccn1-c1cccc(F)c1 [Compound 14, 1-(3-fluorophenyl)-4-(2-phenoxyethoxy)pyrimidin-2(1H)-one] | 296 | 1.61 | 3540 | > 30000 | 77.5 |  | 
4 | O=c1nc(OCCOc2ccccc2)ccn1-c1ccc(F)c(F)c1 [Compound 15, 1-(3,4-difluorophenyl)-4-(2-phenoxyethoxy)pyrimidin-2(1H)-one] | 219 | 2.44 | 427 | > 30000 | 83 |  | 
5 | O=c1nc(OCCOc2ccccc2)ccn1-c1ccc(F)cc1 [Compound 17, 1-(4-Fluorophenyl)-4-(2-phenoxyethoxy)pyrimidin-2(1H)-one] | 211 | 1.84 | 1190 | > 30000 | 96.8 |  | 
6 | O=c1cc(OCCOc2ccccc2)ccn1-c1cc(F)cc(F)c1 [Compound 21, 1-(3,5-difluorophenyl)-4-(2-phenoxyethoxy)pyridin-2(1H)-one] | 799 |  | 818 |  |  | 7.25 | 28.3
7 | O=c1cc(OCCOc2cncc(Cl)c2)ccn1-c1ccc(F)cc1 [Compound 46, 4-(2-((5-chloropyridin-3-yl)oxy)ethoxy)-1-(4-fluorophenyl)pyridin-2(1H)-one] | 2790 | 0.41 |  | > 30000 |  |  | 
8 | O=c1cc(OCCOc2cnccc2Cl)ccn1-c1ccc(F)cc1 [Compound 47, 4-(2-((4-chloropyridin-3-yl)oxy)ethoxy)-1-(4-fluorophenyl)pyridin-2(1H)-one] | > 10000 | 36.7 |  | > 30000 |  |  | 
9 | O=c1cc(OCCOc2cccnc2Cl)ccn1-c1ccc(F)cc1 [Compound 48, 4-(2-((2-chloropyridin-3-yl)oxy)ethoxy)-1-(4-fluorophenyl)pyridin-2(1H)-one] | 5560 | -2.79 |  | > 30000 |  |  | 
10 | O=c1cc(OCCOc2ccccn2)ccn1-c1ccc(F)cc1 [Compound 50, 1-(4-fluorophenyl)-4-(2-(pyridin-2-yloxy)ethoxy)pyridin-2(1H)-one] | 1940 | -0.52 |  | > 30000 |  |  | 
11 | O=c1cc(OCCOc2ncccc2F)ccn1-c1ccc(F)cc1 [Compound 51, 1-(4-fluorophenyl)-4-(2-((3-fluoropyridin-2-yl)oxy)ethoxy)pyridin-2(1H)-one] | 1280 | 0.2 |  | > 30000 |  |  | 
12 | O=c1cc(OCCOc2ccc(F)cn2)ccn1-c1ccc(F)cc1 [Compound 52, 1-(4-fluorophenyl)-4-(2-((5-fluoropyridin-2-yl)oxy)ethoxy)pyridin-2(1H)-one] | 1060 | 0.26 |  | > 30000 |  |  | 
13 | O=c1cc(OCCOc2cccc(Cl)n2)ccn1-c1ccc(F)cc1 [Compound 53, 4-(2-((6-chloropyridin-2-yl)oxy)ethoxy)-1-(4-fluorophenyl)pyridin-2(1H)-one] | 4270 | -1.66 |  | > 30000 |  |  | 
14 | N#Cc1cccnc1OCCOc1ccn(-c2ccc(F)cc2)c(=O)c1 [Compound 56, 2-(2-((1-(4-fluorophenyl)-2-oxo-1,2-dihydropyridin-4-yl)oxy)ethoxy)nicotinonitrile] | > 10000 | 18 |  | > 30000 |  |  | 
15 | N#Cc1ccc(OCCOc2ccn(-c3ccc(F)cc3)c(=O)c2)nc1 [Compound 58, 6-(2-((1-(4-fluorophenyl)-2-oxo-1,2-dihydropyridin-4-yl)oxy)ethoxy)nicotinonitrile] | 1380 | 1.06 |  | > 30000 |  |  | 
16 | N#Cc1cccc(OCCOc2ccn(-c3ccc(F)cc3)c(=O)c2)n1 [Compound 59, 6-(2-((1-(4-fluorophenyl)-2-oxo-1,2-dihydropyridin-4-yl)oxy)ethoxy)picolinonitrile] | > 10000 | 35.9 |  | > 30000 |  |  | 
